Consider 1 compound from patent US20070042967A1, “Proteaseome inhibitors for the treatment of herpesviridae infected individuals” (priority 2002, published 2007).

The subject of the experiment is HCMV IE1/2 enhancer/promoter. The experiment can be described thus: TNFα stimulation / basal activity of the HCMV IE1/2 enhancer/promoter, CAT reporter (pRR55) in HL-60 cells. In kind it is cell-based, HCMV strain Ad169. As for the experimental part:
As a model for undifferentiated monocyte/granulocyte progenitor cells HL-60, cells (ATCC No. CCL 240) expressing high levels of CD34+ but low levels of typical differentiation antigens like CD11a-c and CD14 on their surface were used. Furthermore, HL-60 cells have retained the ability, to differentiate into granulocytes and monocytes depending on the stimulus. HL-60 cells were grown in RPMI 1640 medium supplemented with 10% fetal calf serum (both certified endotoxin-free, Biochrome, Germany) at 37° C. in a 5% humidified atmosphere. […] The cells were grown up to 1×10^6 cells per ml. HL-60 cells were transiently transfected with the plasmid pRR55 containing the native HCMV strain Ad169 IE1/2 enhancer/promoter region between nucleotides […] and +52 relative to the transcription start site upstream of the chloramphenicol acetyl transferase (CAT) reporter gene (Fickenscher et al., 1989). Plasmid DNA was prepared using the endofree Maxi Kit (QUIAGEN, Germany or Machery & Nagel, Germany) and stored in aliquots at −20° C. Transient transfection was performed using the DEAE transfection protocol (Stein et al., 1993). Per transfection reaction 5×10^5 cells were washed once with FCS-free medium and then resuspendend in 250 μl transfection buffer containing 1×TBS (24 mM Tris-HCl, pH 7.4, 137 mM NaCl, 5 mM KCl, 0.7 mM CaCl2, 0.5 mM MgCl2, 0.6 mM Na2HPO4), 2.5 μg plasmid DNA (1 μg/μl ) and 5 mg/ml DEAE dextran (Pharmacia-Amersham, Germany). To avoid differences in transfection efficiency, cells for parallel probes were transfected in one reaction and splitted after transfection. Transfection occurred for 1 h at 37° C. After that the cells were washed once with FCS-free RPMI 1640 medium and resuspended in medium containing 10% FCS at a concentration of 5×10^5 cells/5 ml. MG-132 (Calbiochemie, Germany) was dissolved in ethanol (5 μg/μl) and stored in aliqotes at −20 ° C. MG-132 was added into the medium at time zero after transfection and 1 h before TNFα (5 ng/ml, human recombinant TNFα; PAN, Germany, stored in aliquots containing 10 μg/μl at −80° C.). The cells were harvested 48 h after transfection, washed once with PBS and resuspended in 70 μl CAT buffer 1 (0.25 M Tris/HCl, pH 7.8, 0.5 mM EDTA). After 10 min of incubation on ice, cell extracts were prepared by repeated frozen/thawing of the cells (routinely 5 times), 10 min incubation at 65 ° C. to inactivate isoenzymes. Cell debris was removed by centrifugation at 12000 rpm for 10 min in an Eppendorf centrifuge. Cell extracts were measured for their protein concentrations using the method of Bradford (Bradford, 1976) and Bradford reagent (Sigma, Germany). Equal quantities of protein were used in the CAT-assay as described by Gorman et al., 1982. 20 μl lysates were incubated with [^14C]chloramphenicol (Hartman Analytic, Germany) and acetyl-CoA (Sigma, Germany) at 37° C. Reaction was stopped by extraction with ethylacetat (Merck, Germany). The acetylated products were quantified after separation by thin-layer chromatography using a thin layer scintillator. […] In the presence of 0.1 μg/ml MG-132 reduced TNFα stimulation by 50% (FIG. 1).
The reporter gene plasmid pRR55 contains the whole HCMV IE1/2 enhancer/promoter region between nucleotides +52 and −637 with respect to the IE1 transcriptions start site, upstream of the chloramphenicol acetyltransferase (CAT) gene [Fickenscher H, Stamminger T, Riiger R & Fleckenstein B. The role of a repetetive palindrormic sequence element in the human cytomegalovirus major immediate early enhancer. J Gen Virol 1989; 70:107-123.]. The plasmid was kindly provided by T. Stamminger (Eriangen, Germany). For transient transfection of HL-60 cells we used the DEAE dextran method as described earlier [Stein J, Volk H D, Liebenthal C, Kruger D H & Prosch S. Tumor necrosis factor alpha stimulates the activity of the human cytomegalovirus major immediate early enhancer/promoter in immature monocytic cells. J Gen Virol 1993; 74:2333-2338]. […]

Where a SMILES comes first, the peptide text is derived from it. The star is where a group is joined. Cbz = O=C(OCc1ccccc1)*

In the case of `CC(C)C[C@@H](C=O)NC(=O)[C@H](CC(C)C)NC(=O)[C@H](CC(C)C)NC(=O)OCc1ccccc1` [MG-132, N-carbobenzoxy-L-leucinyl-L-leucinyl-L-leucinal] (Cbz-Leu-Leu-Leu-aldehyde), the “reduction of TNFα stimulation” value (0.1 μg/ml, HL-60, TNFα 5 ng/ml) amounted to 50%. The “decrease of TNFa-mediated stimulation” value (0.8 μM, HL-60) is “about 80%”. For the same compound, the “concentrations that inhibit basic, TNFα-independent activity of the IE1/2 enhancer/promoter” value (HL-60, without TNFα) is “above 0.5 μg/ml”.
